Experimental findings from patent US20250353891A1 (MEDIMMUNE LIMITED, priority 2022, published 2025) are described below.

Assay [1] deals with human GLP-1 receptor (hGLP-1R) (Homo sapiens, UniProt P43220). As to the kind of experiment: cAMP production (HTRF) in CHO cells expressing hGLP-1R. Conditions: for EC50: Table 6, peptides modified at position 17, cAMP in CHO hGLP-1R cells, geometric mean, read-out: hGLP-1R EC50; for % Relative Potency Ratio: Table 6, % GLP-1R activity relative to GLP-1 / % GlucR activity relative to glucagon. Also on record: expressed in transfected cells. It is filed as cell-based. In short, it runs like this: (§1)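 Cells were resuspended in assay buffer at batch-optimized density, typically 1×10^5 cells/mL for hGLP-1R and 2×10^5 cells/mL for hGCGR. After 30 min incubation at room temperature with compound, cAMP was measured by two-step HTRF. EC50 values came from 4-parameter logistic fits of % Delta F.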
A general note: Changes in cAMP serve as a functional read-out for many G protein-coupled receptors.

In assay [2] the target is human glucagon receptor (hGCGR) (Homo sapiens, UniProt P47871). As to the kind of experiment: cAMP production (HTRF) in CHO cells expressing hGCGR. To be noted: Table 6, peptides modified at position 17; cAMP in CHO hGCGR cells; geometric mean; read-out: hGluc-R EC50. It is filed as cell-based. Also on record: expressed in transfected cells. In a few lines: as §1

Starred links: 1 amine or outer side, 2 acyl side, 3 side chain; linkers in the order of their positions; H or OH if unused. Non-standard residues stand in square brackets, D forms with d. Residues, ends and D or L forms follow the SMILES beside them. Groups on a side chain read outwards from the residue. *: point of attachment. C20 diacid = O=C(O)CCCCCCCCCCCCCCCCCCC(=O)*; C18 diacid = O=C(O)CCCCCCCCCCCCCCCCC(=O)*; γGlu = O=C(O)[C@H](CCC(=O)[*:2])N[*:1]; αMeF = C[C@](N)(Cc1ccccc1)C(=O)O; AEEA = NCCOCCOCC(=O)O; Aib = CC(C)(N)C(=O)O

Chain of human GLP-1 receptor (hGLP-1R) (P43220 24-463): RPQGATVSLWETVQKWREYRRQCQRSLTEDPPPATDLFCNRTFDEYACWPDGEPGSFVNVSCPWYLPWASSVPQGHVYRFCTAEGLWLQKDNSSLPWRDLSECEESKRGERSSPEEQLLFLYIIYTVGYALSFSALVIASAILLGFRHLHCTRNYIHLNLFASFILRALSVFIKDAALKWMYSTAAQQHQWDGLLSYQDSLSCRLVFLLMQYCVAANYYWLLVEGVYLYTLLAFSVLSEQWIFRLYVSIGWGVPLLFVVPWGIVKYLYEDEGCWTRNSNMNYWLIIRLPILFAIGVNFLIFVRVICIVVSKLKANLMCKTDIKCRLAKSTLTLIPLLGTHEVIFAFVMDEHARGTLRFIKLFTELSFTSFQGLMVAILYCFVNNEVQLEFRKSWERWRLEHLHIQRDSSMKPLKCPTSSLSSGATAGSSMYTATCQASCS
Chain of human glucagon receptor (hGCGR) (P47871 26-477): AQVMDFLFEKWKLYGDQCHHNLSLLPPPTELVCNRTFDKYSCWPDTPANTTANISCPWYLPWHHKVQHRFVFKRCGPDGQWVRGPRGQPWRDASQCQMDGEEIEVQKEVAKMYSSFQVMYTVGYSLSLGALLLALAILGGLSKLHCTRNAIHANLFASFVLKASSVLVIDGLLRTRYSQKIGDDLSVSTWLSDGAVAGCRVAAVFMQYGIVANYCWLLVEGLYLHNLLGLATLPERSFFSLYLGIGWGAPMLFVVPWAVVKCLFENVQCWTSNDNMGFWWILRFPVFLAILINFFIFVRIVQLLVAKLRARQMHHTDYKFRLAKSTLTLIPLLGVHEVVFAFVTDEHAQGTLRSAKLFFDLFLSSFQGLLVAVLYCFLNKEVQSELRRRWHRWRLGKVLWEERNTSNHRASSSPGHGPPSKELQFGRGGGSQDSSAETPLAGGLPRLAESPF

By EC50 is commonly meant the midpoint of the concentration-response curve. Regarding `CC(C)C[C@H](NC(=O)[C@H](Cc1c[nH]c2ccccc12)NC(=O)[C@H](CCC(N)=O)NC(=O)[C@@H](NC(=O)[C@H](Cc1ccccc1)NC(=O)[C@H](CC(=O)O)NC(=O)[C@H](CCC(N)=O)NC(=O)[C@H](C)NC(=O)[C@H](CCCNC(=N)N)NC(=O)[C@H](CCCCNC(=O)COCCOCCNC(=O)COCCOCCNC(=O)CC[C@H](NC(=O)CCCCCCCCCCCCCCCCC(=O)O)C(=O)O)NC(=O)[C@H](CO)NC(=O)[C@H](CC(=O)O)NC(=O)[C@H](CC(C)C)NC(=O)[C@](C)(Cc1ccccc1)NC(=O)[C@H](CCCCN)NC(=O)[C@H](CO)NC(=O)[C@@H](NC(=O)[C@H](CC(=O)O)NC(=O)[C@H](CO)NC(=O)[C@@H](NC(=O)[C@H](Cc1ccccc1)NC(=O)[C@@H](NC(=O)CNC(=O)[C@H](CCC(N)=O)NC(=O)C(C)(C)NC(=O)[C@@H](N)Cc1c[nH]cn1)[C@@H](C)O)[C@@H](C)O)C(C)C)C(C)C)C(=O)N[C@@H](CC(C)C)C(=O)NC(C)(C)C(=O)N[C@H](C(=O)O)[C@@H](C)O` [Peptide 40] (H-H[Aib]QGTFTSDVSK[αMeF]LDSK([AEEA-AEEA-γGlu-C18 diacid])RAQDFVQWLL[Aib]T-OH; N-terminus assumed), in assay [1], the EC50 was 0.0299 nM and the “% Relative Potency Ratio” value was 8.2. Also, in assay [2], the EC50 was determined as 0.123 nM.

Take `CC[C@H](C)[C@H](NC(=O)[C@H](CO)NC(=O)[C@H](CCC(=O)O)NC(=O)[C@@H](NC(=O)[C@](C)(Cc1ccccc1)NC(=O)[C@H](CC(=O)O)NC(=O)[C@H](CCC(N)=O)NC(=O)[C@H](C)NC(=O)[C@H](C)NC(=O)[C@H](CCCCNC(=O)COCCOCCNC(=O)COCCOCCNC(=O)CC[C@H](NC(=O)CC[C@H](NC(=O)CCCCCCCCCCCCCCCCCCC(=O)O)C(=O)O)C(=O)O)NC(=O)[C@H](CO)NC(=O)[C@H](CC(=O)O)NC(=O)[C@H](CC(C)C)NC(=O)[C@](C)(Cc1ccccc1)NC(=O)[C@H](CCCCN)NC(=O)[C@H](CO)NC(=O)[C@@H](NC(=O)[C@H](CC(=O)O)NC(=O)[C@H](CO)NC(=O)[C@@H](NC(=O)[C@](C)(Cc1ccccc1)NC(=O)[C@H](CO)NC(=O)CNC(=O)[C@H](Cc1c[nH]cn1)NC(=O)C(C)(C)NC(=O)[C@@H](N)Cc1c[nH]cn1)[C@@H](C)O)C(C)C)C(C)C)C(=O)N[C@@H](C)C(=O)N[C@@H](CC(N)=O)C(=O)N[C@H](C(N)=O)[C@@H](C)O` [Peptide 22] (H-H[Aib]HGS[αMeF]TSDVSK[αMeF]LDSK([AEEA-AEEA-γGlu-γGlu-C20 diacid])AAQD[αMeF]VESIANT-NH2; N-terminus assumed): the EC50 in assay [1] stood at 1.23 nM; in assay [2], 2.72 nM. Also, the “% Relative Potency Ratio” value in assay [1] is given as 4.4.

As to `CC(C)C[C@H](NC(=O)[C@H](Cc1c[nH]c2ccccc12)NC(=O)[C@H](CCCNC(=N)N)NC(=O)[C@@H](NC(=O)[C@H](Cc1ccccc1)NC(=O)[C@H](CC(=O)O)NC(=O)[C@H](CCC(N)=O)NC(=O)[C@H](C)NC(=O)[C@H](CCCNC(=N)N)NC(=O)[C@H](CCCCNC(=O)COCCOCCNC(=O)COCCOCCNC(=O)CC[C@H](NC(=O)CCCCCCCCCCCCCCCCC(=O)O)C(=O)O)NC(=O)[C@H](CO)NC(=O)[C@H](CCC(=O)O)NC(=O)[C@H](CC(C)C)NC(=O)[C@](C)(Cc1ccccc1)NC(=O)[C@H](CCCCN)NC(=O)[C@H](CO)NC(=O)[C@@H](NC(=O)[C@H](CC(=O)O)NC(=O)[C@H](CO)NC(=O)[C@@H](NC(=O)[C@H](Cc1ccccc1)NC(=O)[C@@H](NC(=O)CNC(=O)[C@H](CCC(N)=O)NC(=O)C(C)(C)NC(=O)[C@@H](N)Cc1c[nH]cn1)[C@@H](C)O)[C@@H](C)O)C(C)C)C(C)C)C(=O)N[C@@H](CC(C)C)C(=O)NC(C)(C)C(=O)N[C@@H](CCC(=O)O)C(=O)O` [Peptide 173] (H-H[Aib]QGTFTSDVSK[αMeF]LESK([AEEA-AEEA-γGlu-C18 diacid])RAQDFVRWLL[Aib]E-OH; N-terminus assumed), in assay [1], the EC50 is 0.134 nM and the “% Relative Potency Ratio” value was found to be 12.9. For the same compound, the EC50 in assay [2] turned out to be 0.874 nM.

For `CC(C)C[C@H](NC(=O)[C@H](Cc1c[nH]c2ccccc12)NC(=O)[C@H](CCCNC(=N)N)NC(=O)[C@@H](NC(=O)[C@H](Cc1ccccc1)NC(=O)[C@H](CC(=O)O)NC(=O)[C@H](CCC(N)=O)NC(=O)[C@H](C)NC(=O)[C@H](CCCNC(=N)N)NC(=O)[C@H](CCCCNC(=O)COCCOCCNC(=O)COCCOCCNC(=O)CC[C@H](NC(=O)CC[C@H](NC(=O)CCCCCCCCCCCCCCCCCCC(=O)O)C(=O)O)C(=O)O)NC(=O)[C@H](CCCNC(=N)N)NC(=O)[C@H](CC(=O)O)NC(=O)[C@H](CC(C)C)NC(=O)[C@](C)(Cc1ccccc1)NC(=O)[C@H](CCCCN)NC(=O)[C@H](CO)NC(=O)[C@@H](NC(=O)[C@H](CC(=O)O)NC(=O)[C@H](CO)NC(=O)[C@@H](NC(=O)[C@H](Cc1ccccc1)NC(=O)[C@@H](NC(=O)CNC(=O)[C@H](CCC(N)=O)NC(=O)C(C)(C)NC(=O)[C@@H](N)Cc1c[nH]cn1)[C@@H](C)O)[C@@H](C)O)C(C)C)C(C)C)C(=O)N[C@H](C(=O)NC(C)(C)C(=O)N[C@@H](CCC(=O)O)C(N)=O)C(C)C` [Peptide 447] (H-H[Aib]QGTFTSDVSK[αMeF]LDRK([AEEA-AEEA-γGlu-γGlu-C20 diacid])RAQDFVRWLV[Aib]E-NH2; N-terminus assumed), in assay [1], the EC50 stood at 0.17 nM and the “% Relative Potency Ratio” value is 7.8. Also, the EC50 in assay [2] worked out at 0.667 nM.

For `CC(C)C[C@H](NC(=O)[C@H](Cc1c[nH]c2ccccc12)NC(=O)[C@H](CCCNC(=N)N)NC(=O)[C@@H](NC(=O)[C@H](Cc1ccccc1)NC(=O)[C@H](CC(=O)O)NC(=O)[C@H](CCC(N)=O)NC(=O)[C@H](C)NC(=O)[C@H](CCCNC(=N)N)NC(=O)[C@H](CCCCNC(=O)COCCOCCNC(=O)COCCOCCNC(=O)CC[C@H](NC(=O)CC[C@H](NC(=O)CCCCCCCCCCCCCCCCCCC(=O)O)C(=O)O)C(=O)O)NC(=O)[C@H](CCCCN)NC(=O)[C@H](CC(=O)O)NC(=O)[C@H](CC(C)C)NC(=O)[C@](C)(Cc1ccccc1)NC(=O)[C@H](CCCCN)NC(=O)[C@H](CO)NC(=O)[C@@H](NC(=O)[C@H](CC(=O)O)NC(=O)[C@H](CO)NC(=O)[C@@H](NC(=O)[C@H](Cc1ccccc1)NC(=O)[C@@H](NC(=O)CNC(=O)[C@H](CCC(N)=O)NC(=O)C(C)(C)NC(=O)[C@@H](N)Cc1c[nH]cn1)[C@@H](C)O)[C@@H](C)O)C(C)C)C(C)C)C(=O)N[C@@H](CC(C)C)C(=O)NC(C)(C)C(=O)N[C@@H](CCC(=O)O)C(N)=O` [Peptide 455] (H-H[Aib]QGTFTSDVSK[αMeF]LDKK([AEEA-AEEA-γGlu-γGlu-C20 diacid])RAQDFVRWLL[Aib]E-NH2), the 50% effective concentration (EC50) in assay [1] was 0.127 nM; in assay [2], 0.114 nM. For the same compound, the “% Relative Potency Ratio” value in assay [1] was 1.8.
